Results on 11 molecules are retold here after PubChem BioAssay (NCI).

Values joined by “and” are separate entries in the source; they are usually repeats but may differ in a detail not shown here. Identical values can stand only once.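 All cell lines were grown in 96-well plates and treated with compound for 48 hours. GI50 = concentration required for 50% inhibition of growth. Definition used: TGI = concentration required for complete inhibition of growth.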

Test systems include CAKI-1 renal; COLO 205 colon; HCT-116 colon; K-562 leukemia; MCF7 breast; NCI-H226 lung; SF-295 CNS; SF-539 CNS; UACC-257 melanoma; UACC-62 melanoma.
Holding throughout (test): NCI tumour cell line growth inhibition, 48 h

Turning to `Cc1cc(N2CCCC2)c([N+](=O)[O-])cc1[N+](=O)[O-]`, the TGI in the experiment with CAKI-1 renal, in the experiment with COLO 205 colon, in the experiment with HCT-116 colon, in the experiment on K-562 leukemia, in the experiment on MCF7 breast and in the experiment with NCI-H226 lung was more than 100 µM in each case. The TGI in the experiment with SF-295 CNS, in the experiment on SF-539 CNS, in the experiment with UACC-257 melanoma and in the experiment with UACC-62 melanoma was more than 100 µM throughout.
Regarding `COC(=O)C1=CON2C3CC4CC(C3)CC(C4)C12C` (configuration not stated), the TGI with CAKI-1 renal, with COLO 205 colon, in the experiment on HCT-116 colon, in the experiment on K-562 leukemia, with MCF7 breast and in the experiment on NCI-H226 lung was more than 100 µM throughout. The TGI with SF-295 CNS, with SF-539 CNS, with UACC-257 melanoma and in the experiment with UACC-62 melanoma was more than 100 µM throughout.
For the molecule `CCN(CC)CCOC(=O)Cc1cccc2c(=O)cc(-c3ccccc3)oc12`, the GI50 is 252 µM in the experiment on CAKI-1 renal; 439 µM in the experiment on COLO 205 colon; 85.1 µM in the experiment with HCT-116 colon; 406 µM in the experiment on K-562 leukemia; 46.9 µM with MCF7 breast; 50.7 µM with NCI-H226 lung. For the same molecule, the GI50 in the experiment on SF-295 CNS is 19.2 µM; with SF-539 CNS, 58.6 µM; in the experiment with UACC-257 melanoma, 67 µM; in the experiment on UACC-62 melanoma, 39.5 µM. Also, the TGI in the experiment with HCT-116 colon was 62.5 µM and > 153 µM; in the experiment with MCF7 breast, 62.5 µM and > 216 µM; in the experiment with NCI-H226 lung it was 62.5 µM and > 129 µM; with SF-295 CNS, 62.5 µM and > 141 µM; with SF-539 CNS, 62.5 µM and > 179 µM; with UACC-257 melanoma it was 62.5 µM and > 154 µM. The TGI in the experiment on UACC-62 melanoma was 62.5 µM and > 154 µM.
As to `O=C1CS(=O)(=O)C(c2cccc(Oc3ccccc3)c2)N1c1ccccc1` (configuration not stated), the TGI in the experiment with CAKI-1 renal was determined as 58.3 µM; in the experiment on COLO 205 colon, 37.2 µM; with HCT-116 colon, 30.8 µM; in the experiment with K-562 leukemia, 60.1 µM; in the experiment on MCF7 breast it was 33.3 µM; with NCI-H226 lung it was 45.6 µM. Besides, the TGI in the experiment on SF-295 CNS is more than 100 µM; in the experiment with SF-539 CNS it was 39.6 µM; with UACC-257 melanoma, 46 µM; in the experiment with UACC-62 melanoma, 27 µM.
`COc1cc(CCN(C)C)cc(OC)c1OC`: the TGI in the experiment on CAKI-1 renal, with COLO 205 colon, in the experiment on HCT-116 colon, in the experiment with K-562 leukemia, in the experiment with MCF7 breast and with NCI-H226 lung was more than 100 µM in each case. Also, the TGI in the experiment on SF-295 CNS, with SF-539 CNS, in the experiment on UACC-257 melanoma and with UACC-62 melanoma was more than 100 µM each time.
Consider `COC1(c2cccs2)c2ccccc2C(OC)(c2cccs2)c2ccccc21` (configuration not stated), for which the TGI with CAKI-1 renal, in the experiment on COLO 205 colon, in the experiment on HCT-116 colon, with K-562 leukemia, in the experiment on MCF7 breast and with NCI-H226 lung was more than 100 µM in each case. The TGI in the experiment on SF-295 CNS, in the experiment with SF-539 CNS, in the experiment with UACC-257 melanoma and with UACC-62 melanoma was more than 100 µM each time.
Take `COC1=C2C=[N+](C)C3C(=C2C=CC1OC)Cc1cc2c(cc13)OCO2` (configuration not stated): the TGI with CAKI-1 renal was 29.3 µM; in the experiment with COLO 205 colon, 18.4 µM; in the experiment with HCT-116 colon, 31.5 µM; with K-562 leukemia, 42.5 µM; in the experiment on MCF7 breast it was 21.5 µM; in the experiment with NCI-H226 lung, 38.4 µM. The TGI with SF-295 CNS worked out at 29 µM; in the experiment with SF-539 CNS it was 24 µM; in the experiment on UACC-257 melanoma, 26.2 µM; with UACC-62 melanoma, 21.6 µM.
On to `CCCC(=O)NC(Nc1ccc(F)cc1)(C(F)(F)F)C(F)(F)F`, for which the TGI in the experiment on CAKI-1 renal is more than 100 µM; in the experiment with COLO 205 colon, more than 92.8 µM; in the experiment on HCT-116 colon it was more than 100 µM; in the experiment with K-562 leukemia, more than 100 µM; in the experiment on MCF7 breast, more than 100 µM; in the experiment on NCI-H226 lung, more than 100 µM. Further, the TGI in the experiment on SF-295 CNS, in the experiment with SF-539 CNS, in the experiment with UACC-257 melanoma and in the experiment on UACC-62 melanoma was more than 100 µM each time.
Regarding `Cc1ccc(S(=O)(=O)n2ccc(-c3ccc4ccn(S(=O)(=O)c5ccc(C)cc5)c4c3)c2)cc1`, the TGI in the experiment on CAKI-1 renal, with COLO 205 colon, with HCT-116 colon, with K-562 leukemia, in the experiment with MCF7 breast and in the experiment with NCI-H226 lung was more than 100 µM in each case. Moreover, the TGI with SF-295 CNS, in the experiment with SF-539 CNS, in the experiment with UACC-257 melanoma and with UACC-62 melanoma was more than 100 µM in each case.
`O=C(C(Cl)=C(N1CCCCC1)N1CCCCC1)C(Cl)Cl`: the TGI in the experiment with CAKI-1 renal, in the experiment on COLO 205 colon, with HCT-116 colon, with K-562 leukemia, in the experiment with MCF7 breast and with NCI-H226 lung was more than 100 µM in each case. Besides, the TGI in the experiment with SF-295 CNS, with SF-539 CNS, in the experiment on UACC-257 melanoma and in the experiment on UACC-62 melanoma was more than 100 µM in each case.
For `CCCc1nnc2sc(COc3cc(Cl)c(OCc4nn5c(CCC)nnc5s4)cc3Cl)nn12`, the TGI was more than 100 µM with CAKI-1 renal; more than 100 µM with COLO 205 colon; more than 100 µM in the experiment on HCT-116 colon; more than 100 µM in the experiment on K-562 leukemia; 72.9 µM in the experiment with MCF7 breast; more than 100 µM with NCI-H226 lung. The TGI in the experiment on SF-295 CNS, in the experiment on SF-539 CNS, in the experiment on UACC-257 melanoma and in the experiment with UACC-62 melanoma was more than 100 µM each time.
